Format in all cases: in vivo
Assay [1] concerns mice. The assay is described as follows: Tail suspension assay in mice. Conditions: 90 mg/kg, route not given. As to the method:
Another method of measuring antidepressant activity that may be used to evaluate the compounds of the present invention is the tail suspension test in mice described in Vogel, H. G. and Vogel, W. H. (Eds.) Drug Discovery and Evaluation, Springer-Verlag Berlin Heidelberg, 1997) pp. 304-3059). The mouse tail suspension assay was conducted 60 minutes after dosing. The duration of immobility was recorded for a period of 5 minutes after tail suspension was initiated, and reduction in the duration of immobility by ≥50% relative to the control group indicated antidepressant activity. Statistical analysis was also performed by using one-way ANOVA followed by Dunnett's test to compare the data of test compound-treated and vehicle control groups. Significance was considered to be P<0.05.

The subject of assay [2] is mice. In words: Mouse formalin assay (analgesic activity). The procedure:
The analgesic activity of the compounds of the present invention is determined making use of the mouse formalin test described in Hunskaar, S. J Neurosci Methods 1985, 14(1): 69-76. The hind paw licking time was measured at 5-minute intervals for 30 minutes following subplantar injection of formalin (0.02 mL, 2%). Statistical analysis using one-way ANOVA followed by Dunnett's test was applied for comparison between the test substance-treated and vehicle control groups. P<0.05 was considered significant.

The subject of assay [3] is fmr1 KO mice and wild type mice. The assay is described as follows: Social behavior test in Fragile X (fmr1 KO) mouse model. The settings on record: 30 mg/kg i.p. acute. As to the method: FIG. 4A plots the time (s) that the test mouse devotes to exploring two cylinders: a first cylinder containing a familiar genotype-matched juvenile stimulus mouse and a second cylinder containing a novel stimulus mouse and the total time of exploration (both cylinders) during a 10 min session. FIG. 4B Plots the percentage of time spent near the two cylinders during the 10 min session. FIG. 4C plots the Discrimination index (time exploring the novel stimulus−time exploring the familiar stimulus/total time of exploration×100).
N=10-12 mice per group. Mice had received an acute i.p. injection of saline (WT 1st bar, fmr1 KO 3rd bar) or 30 mg/kg Example 2 (Wild Type 2nd bar, fmr1 KO 4th bar) 24 h before the session. Data are expressed as mean±S.E.M. Two way ANOVA Treatment effect Φ p<0.05, Genotype x Treatment interaction p<0.05, Bonferroni as post hoc ***p<0.001, **p<0.01, *p<0.05.
Example 2 effects on social disability in a model of Fmr1 KO was performed. Social behavior was examined on an open-field that consisted of an arena (70 cm long×70 cm wide×30 cm high) made of Plexiglas. An overhead camera connected to the video-tracking software SMART (Panlab, Spain) was used to monitor the animal's behavior. The experimental design included three sessions:
1) Habituation session Animals were habituated for 10 min to an arena containing two empty transparent cylinders (30 cm diameter×40 cm high) made of Plexiglas. The cylinders were perforated to have interaction points and were located on two corners of the open field. Time exploring the cylinders was registered along the 10 min duration. After the habituation session mice received an acute injection of either saline or Example 2 (30 mg/kg i.p.) and replaced on their cages. 2) Social interaction 24 h later, animals were replaced to the arena containing the two cylinders, one cylinder was empty and the other one contained a stranger individual (stimulus). The time exploring the two cylinders was registered for 10 minutes. The stimulus individual was always a juvenile mouse (less than two months of age), to avoid the group hierarchy and aggressiveness towards non familiar individuals that show adult male mice. In addition, the stimulus individual was genotype matched with the testing mouse. The position of the stimulus individual was counterbalanced between animals. After the sociability session mice received an acute injection of either saline or Example 2 (30 mg/kg i.p.). 3) Social recognition 24 h later, animals were replaced to the arena containing the two cylinders, one cylinder contained the same stimulus individual presented during the social interaction session (familiar) and the other contained a novel stimulus individual. Both stimuli were juvenile animals and genotype matched. The position of the familiar stimulus remained the same as it was in the social interaction session, and counterbalanced between animals. Once the subject mice finished the test they remained individually housed in a separate cage until the other cage partner finalized the test, to avoid exposition to olfactory cues from stimuli mice. In all cases, those mice from the same cage were never exposed to the same stimuli, either familiar or novel. The time exploring the two cylinders was registered for 10 minutes. The discrimination index was calculated as time exploring the novel stimulus mouse−time exploring the familiar stimulus mouse/total time of exploration×100. The arena and cylinders were deeply cleaned between animals to avoid olfactory cues. All measures of exploration were manually registered by the experimenter blind to genotype and treatment. Exploratory behavior was defined as the animal directing its nose towards the cylinder at a distance of <2 cm. A proximal zone of 14 cm from the cylinders was defined as interaction zone and the time spent in these zones was registered as index of exploratory behavior.

Take `CNCCC(Oc1ccc(CCO)cc1)c1ccccc1.Cl` (single isomer, unassigned) [Example 2, 2-[4-[3-(Methylamino)-1-phenylpropoxy]phenyl]ethanol hydrochloride]: the “antidepressant effect (duration of immobility)” value in the assay on mice [1] is reported as “significant activity”. Moreover, in the assay on mice [2] (3 mg/kg oral), the “analgesic activity following formalin challenge (hind paw licking time)” value is recorded as “significant analgesic activity”. In addition, in the assay on mice [2] (30 mg/kg intraperitoneal), the “analgesic activity following formalin challenge (hind paw licking time)” value is recorded as “significant analgesic activity”. The “analgesic activity following formalin challenge (hind paw licking time)” value in the assay with mice [2] (30 mg/kg oral) was “significant analgesic activity”. For the same compound, in the assay with mice [2] (90 mg/kg oral), the “analgesic activity following formalin challenge (hind paw licking time)” value is on record as “significant analgesic activity”. Further, the “time exploring the familiar stimulus (FIG. 4A)” value in assay [3] (WT and fmr1 KO mice) is “significantly reduced”. In assay [3] (fmr1 KO mice), the “social behavior alteration / social abnormalities” value is reported as “completely restored”, the “time exploring the novel stimulus mouse” value is “rose at levels comparable to those detected in wild type animals”, the “time spent near the familiar individual (FIG. 4B)” value was “reducing” and the “time spent near the novel stimulus (FIG. 4B)” value is listed as “significantly increased”. Further, the social recognition result in assay [3] (wild type mice) is “did not modify”.

For the origin of these results see patent publication US9980928B2, “Hydroxy aliphatic substituted phenyl aminoalkyl ether derivatives” (PROUS INSTITUTE FOR BIOMEDICAL RESEARCH, S.A., priority 2012, dated 2018).
